Assay results as given in PubChem BioAssay AID248 (DTP/NCI, 2004).
Toxic doses and inconclusive results are not listed. No stated cut-off is given here; in the data, active means T/C of 150% or more; inactive means T/C below 125%.

Test system: L1210 leukemia ip in BDF1 mice, survival T/C
Test: NCI In Vivo Anticancer Drug Screen. Data for tumor model L1210 Leukemia (intraperitoneal) in B6D2F1 (BDF1) mice
Conditions: endpoint: mean survival time, higher = longer survival
Method in brief: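 Value reflects the ratio of survival in compound-treated mice to survival in vehicle-treated controls, with both groups carrying the same transplanted tumor.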

[1] = dose: 100.0 mg/kg/injection, schedule: Q01DX001 (ip), vehicle: saline
[2] = dose: 200.0 mg/kg/injection, schedule: Q01DX001 (ip), vehicle: saline
[3] = dose: 100.0 mg/kg/injection, schedule: Q01DX001 (ip), vehicle: carboxymethylcellulose (CMC)
[4] = dose: 200.0 mg/kg/injection, schedule: Q01DX001 (ip), vehicle: carboxymethylcellulose (CMC)
[5] = dose: 400.0 mg/kg/injection, schedule: Q01DX001 (ip), vehicle: carboxymethylcellulose (CMC)
[6] = dose: 100.0 mg/kg/injection, schedule: Q01DX009 (ip), vehicle: Klucel (hydroxypropylcellulose) (HPC)
[7] = dose: 100.0 mg/kg/injection, schedule: Q04DX003 (ip), vehicle: Klucel (hydroxypropylcellulose) (HPC)
[8] = dose: 200.0 mg/kg/injection, schedule: Q01DX009 (ip), vehicle: Klucel (hydroxypropylcellulose) (HPC)
[9] = dose: 200.0 mg/kg/injection, schedule: Q04DX003 (ip), vehicle: Klucel (hydroxypropylcellulose) (HPC)
[10] = dose: 400.0 mg/kg/injection, schedule: Q04DX003 (ip), vehicle: Klucel (hydroxypropylcellulose) (HPC)

Measured: T/C

O=C1c2cc(Br)ccc2NC1(c1c[nH]c2ccc(Br)cc12)c1c[nH]c2ccc(Br)cc12
inactive: dose: 50.0 mg/kg/injection, schedule: Q01DX001 (ip), vehicle: saline 100 % of control | [1] 96 % of control | [2] 93 % of control | dose: 400.0 mg/kg/injection, schedule: Q01DX001 (ip), vehicle: saline 93 % of control

Nc1c(S(=O)(=O)O)cc(Nc2cccc(CO)c2)c2c1C(=O)c1ccccc1C2=O
inactive: dose: 5.0 mg/kg/injection, schedule: Q01DX001 (ip), vehicle: saline 105 % of control | dose: 10.0 mg/kg/injection, schedule: Q01DX001 (ip), vehicle: saline 103 % of control | dose: 20.0 mg/kg/injection, schedule: Q01DX001 (ip), vehicle: saline 101 % of control | dose: 40.0 mg/kg/injection, schedule: Q01DX001 (ip), vehicle: saline 94 % of control | dose: 80.0 mg/kg/injection, schedule: Q01DX001 (ip), vehicle: saline 95 % of control | [1] 95 % of control | dose: 100.0 mg/kg/injection, schedule: Q04DX003 (ip), vehicle: saline 101 % of control | [2] 93 % of control | dose: 200.0 mg/kg/injection, schedule: Q04DX003 (ip), vehicle: saline 104 % of control | dose: 400.0 mg/kg/injection, schedule: Q04DX003 (ip), vehicle: saline 92 % of control

COc1ccc(/C(C)=N\OC(=O)N(C)C)c(OC)c1
inactive: [3] 100 % of control | [4] 100 % of control | [5] 103 % of control

COC(=O)c1ccccc1NC(=O)Nc1cc(Cl)ccc1OC
inactive: [6] 89 % of control | [7] 106 % of control | [8] 103 % of control | [9] 90 % of control | dose: 400.0 mg/kg/injection, schedule: Q01DX009 (ip), vehicle: Klucel (hydroxypropylcellulose) (HPC) 107 % of control | [10] 95 % of control

Nn1c(=S)[nH]n2cnnc12
inactive: [3] 98 % of control | [4] 106 % of control | [5] 95 % of control

COC1OC(COC(=O)c2ccccc2)C(OC(=O)c2ccccc2)C1OC(=O)c1ccccc1 (stereo not drawn)
inactive: dose: 100.0 mg/kg/injection, schedule: Q04DX003 (ip), vehicle: saline with Tween-80 101 % of control | dose: 200.0 mg/kg/injection, schedule: Q04DX003 (ip), vehicle: saline with Tween-80 92 % of control | dose: 400.0 mg/kg/injection, schedule: Q04DX003 (ip), vehicle: saline with Tween-80 90 % of control

O=[N+]([O-])c1ccc(C(O)C=C(C(F)(F)F)C(F)(F)F)cc1 (stereo not drawn)
inactive: dose: 12.5 mg/kg/injection, schedule: Q01DX009 (ip), vehicle: Klucel (hydroxypropylcellulose) (HPC) 100 % of control | dose: 25.0 mg/kg/injection, schedule: Q01DX009 (ip), vehicle: Klucel (hydroxypropylcellulose) (HPC) 97 % of control | [7] 95 % of control | [9] 95 % of control | [10] 97 % of control

Cc1cc(N(CCCl)CCCl)ccc1C1N(Cc2ccccc2N(C)C)CCCN1Cc1ccccc1N(C)C
inactive: dose: 4.0 mg/kg/injection, schedule: Q12HX018 (ip), vehicle: other 101 % of control | dose: 6.0 mg/kg/injection, schedule: Q12HX018 (ip), vehicle: other 98 % of control | dose: 8.0 mg/kg/injection, schedule: Q12HX018 (ip), vehicle: Klucel (hydroxypropylcellulose) (HPC) 102 % of control | dose: 8.0 mg/kg/injection, schedule: Q12HX018 (ip), vehicle: other 109 % of control | dose: 16.0 mg/kg/injection, schedule: Q12HX018 (ip), vehicle: Klucel (hydroxypropylcellulose) (HPC) 107 % of control | dose: 32.0 mg/kg/injection, schedule: Q12HX018 (ip), vehicle: Klucel (hydroxypropylcellulose) (HPC) 105 % of control

COc1ccc(C2=NNc3n[nH]c(=S)n3N2)cc1OC
inactive: dose: 50.0 mg/kg/injection, schedule: Q01DX009 (ip), vehicle: Klucel (hydroxypropylcellulose) (HPC) 96 % of control | [6] 96 % of control | [8] 112 % of control
